US20240361338A1, “DIAGNOSIS AND TREATMENT OF ECTOPIC ENDOMETRIOSIS” (FERRING B.V., priority 2021, published 2024)

Legend:
dopamine D2 = dopamine D2 (Homo sapiens, UniProt P14416); conditions: Igbokwe et al, 2009; read-out: EC50 as D2 agonist; cited from earlier work
eutopic E-MSCs [1] = experiment: Endothelial differentiation (CD31) of eutopic E-MSCs in co-culture with HUVECs; assay type: cell-based, human; conditions: 100 nM, 24-h treatment, 48 h co-culture with HUVECs
endometriotic lesions = conditions: patients with severe endometriosis and hyperprolactinemia (Gomez et al, 2011); cited from earlier work
AKT = experiment: Western blot of P-AKT in eutopic EMSCs; assay type: cell-based, human; conditions: eutopic cell lines, 100 nM quinagolide, 24 hours (text; legend 48 h)
Method: FIG. 6: Quinagolide effect on AKT activation. A: Representative western blot analysis and quantification of AKT levels in eutopic and ectopic EMSCs treated for 48 h with 100 nM quinagolide (Q), compared to untreated cells (CTL). B: Representative western blot analysis and quantification of P-AKT levels, normalized to AKT expression, in eutopic and ectopic EMSCs treated for 48 h with 100 nM quinagolide (Q), respect to untreated cells (CTL). C: Representative western blot analysis and quantification of P-AKT levels in HUVECs, ectopic […] basal), and in […] co-culture with HUVECs, treated or not for 24 h with 100 nM quinagolide (Q100 nM). Data are represented as mean±SD of at least two independent experiments, performed on different EMSC lines, and normalized to Vinculin and to untreated cells (CTL). One-way ANOVA was performed: *=p<0.05 and **=p<0.001 vs CTL. Cell pellets were lysed at 4° C. for 15 minutes in RIPA buffer supplemented with protease and phosphatase inhibitors cocktail and PMSF (Sigma-Aldrich). Proteins were quantified using Bradford solution following the manufacturer procedures (Bio-Rad Inc., Berkely, CA, USA) and aliquots of cell lysates containing 50 μg of proteins were run on 4-12% Mini-Protean TGX Stain-Free Gels (Bio-Rad) under reducing conditions and transferred onto PVDF membrane filters using the iBLOT2 system (Life Technologies). […]

eutopic E-MSCs [2] = experiment: Matrigel transwell invasion assay, eutopic E-MSCs; assay type: cell-based, human; conditions: 100 nM, 48 h, vs untreated
Method: FIG. 4: Quinagolide effect on EMSCs invasion. A and B: Representative micrographs (A) and quantification (B) of quinagolide effect (100 nM) on eutopic and ectopic (both ovarian and peritoneal) EMSCs invasion (original magnification: ×100). C: Concentration response effect of quinagolide treated ectopic EMSCs invasion. D and E: Quantification (D) and representative micrographs (E) (original magnification: ×100) of invasion assays performed on ectopic EMSCs (both ovarian and peritoneal), treated with 100 nM quinagolide (Q100 nM), 5 μM spiperone(S) or a combination of quinagolide and spiperone (S+Q100 nM). All invasion data are represented as mean±SD of at least three independent experiments, performed on different EMSC lines, and normalized to untreated cells (CTL). One-way ANova was performed: *=p<0.05 and **=p<0.001 vs CTL. Quinagolide powder (provided by Ferring Pharmaceuticals) was stored at 4° C. and resuspended in dimethylsulphoxide (DMSO) to a stock solution of 1 mM immediately before use. Spiperone powder (Sigma-Aldrich) was resuspended in water to a stock concentration of 1 mM and stored at −20° C. […] At least five pictures per transwell were acquired (original magnification: 100×), and the percentage of transwell area covered by invaded EMSCs was quantitatively measured by ImageJ software.

Chain of dopamine D2 (P14416 1-414 isoform P14416-2): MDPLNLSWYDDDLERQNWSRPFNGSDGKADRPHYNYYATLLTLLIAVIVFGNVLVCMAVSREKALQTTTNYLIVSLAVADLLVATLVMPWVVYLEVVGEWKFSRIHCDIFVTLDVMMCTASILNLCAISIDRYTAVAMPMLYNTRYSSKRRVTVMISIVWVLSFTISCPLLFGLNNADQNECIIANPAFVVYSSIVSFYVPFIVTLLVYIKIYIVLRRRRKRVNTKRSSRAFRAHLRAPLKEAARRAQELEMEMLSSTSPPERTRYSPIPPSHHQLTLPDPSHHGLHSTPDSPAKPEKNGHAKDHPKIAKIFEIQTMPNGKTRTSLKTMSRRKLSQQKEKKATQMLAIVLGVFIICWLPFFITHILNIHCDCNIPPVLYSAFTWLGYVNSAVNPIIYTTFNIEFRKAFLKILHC

CCCN1C[C@@H](NS(=O)(=O)N(CC)CC)C[C@@H]2Cc3c(O)cccc3C[C@H]21 [quinagolide, N,N-diethyl-N′-[(3S,4aS,10aR)-6-hydroxy-1-propyl-1,2,3,4,4a,5,10,10a-octahydrobenzo[g]quinolin-3-yl]sulfamide]
EC50 (dopamine D2): 0.058 nM
percentage of CD31 expressing E-MSCs after co-culture (eutopic E-MSCs [1]): no significant alteration
size of endometriotic lesions (endometriotic lesions): reduced the size
AKT phosphorylation (AKT): significant decrease
invasion of eutopic E-MSC lines (eutopic E-MSCs [2]): significantly reduced
